Data from patent US12233106B2, “C-type natriuretic peptide variants to treat skeletal dysplasia in children” (priority 2021, dated 2025).

Columns and labels:
[1] = in vivo
clinical = settings: human, in vivo, 15 ug/kg
Description: Primary endpoints include length/height Z-score at Week 52 and evaluation of any adverse events. Secondary endpoints include AGV at Week 52, Bilateral X-rays of lower extremities, Lumbar spine X-rays, DXA of whole body and spine, AUC0-∞, AUC0-t, Cmax, Tmax, t1/2, CL/F, VZ/F, Hip monitoring clinical assessments, Bayley-III, WeeFIM, and ITQOL scores, CBCL scores, Anti-vosoritide total antibody (TAb), Anti-vosoritide antibody cross-reactivity with endogenous CNP, ANP, and BNP (TAb), Anti-vosoritide neutralizing antibody (NAb), CXM and bone-specific alkaline phosphatase, Collagen type II (CTX-II), Cyclic guanosine monophosphate (cGMP), anthropometric measurements, upper to lower body segment ratio, upper arm length to lower arm (forearm) length ratio, upper leg length (thigh) to knee to heel length ratio, upper leg length (thigh) to tibial length ratio, and arm span to standing height ratio.
The pharmacokinetics of vosoritide in the different populations of patients was also analyzed for any change in PK (Table 4). PD information (plasma cGMP and serum CXM) in 4 sentinel subjects and 33 randomized subjects (aged≥24 to <60 months) receiving 30 μg/kg vosoritide was available.

[2] = normal human; cited from earlier work

Row | Molecule | Adverse event of grade two or higher related to the study drug (CTCAE v5.0) [1] | CL/F (clinical; Mean CL/F, range over visits) [mL/min/kg] | Vd/F (clinical; Mean Vz/F, range over visits) [L/kg] | Tmax (clinical; Median Tmax, range over visits) [min] | Cmax (clinical; mean Cmax, range over visits) [ng/mL] | half-life (clinical; mean t1/2, range over visits) [min] | Tmax (clinical; sc, tmax, median [minimum, maximum]) [min] | in vivo (plasma) half-life [2] [min]
1 | CC[C@H](C)[C@@H]1NC(=O)[C@H](CCCNC(=N)N)NC(=O)[C@H](CC(=O)O)NC(=O)[C@H](CC(C)C)NC(=O)[C@H](CCCCN)NC(=O)[C@H](CC(C)C)NC(=O)CNC(=O)[C@H](Cc2ccccc2)NC(=O)[C@@H](NC(=O)CNC(=O)[C@H](CCCCN)NC(=O)[C@H](CO)NC(=O)[C@H](CC(C)C)NC(=O)CNC(=O)[C@H](CCCCN)NC(=O)[C@H](CCCCN)NC(=O)[C@H](CC(N)=O)NC(=O)[C@H](C)NC(=O)CNC(=O)[C@H](CCCCN)NC(=O)[C@H](Cc2ccc(O)cc2)NC(=O)[C@H](CCCCN)NC(=O)[C@H](CCCNC(=N)N)NC(=O)[C@H](C)NC(=O)[C@H](CC(N)=O)NC(=O)[C@@H]2CCCN2C(=O)[C@H](Cc2c[nH]cn2)NC(=O)[C@H](CCC(=O)O)NC(=O)[C@H](CCC(N)=O)NC(=O)CNC(=O)[C@@H]2CCCN2)CSSC[C@@H](C(=O)O)NC(=O)CNC(=O)[C@H](CC(C)C)NC(=O)CNC(=O)[C@H](CO)NC(=O)[C@H](CCSC)NC(=O)[C@H](CO)NC(=O)CNC1=O [vosoritide] | No patient | 82.1 to 150 | 2.65 to 3.8 | 14 to 15.5 | 3.81 to 6.86 | 15.2 to 29.3 | 14 | –
2 | CNP: mature 22-amino acid C-type natriuretic peptide (wild type CNP-22) | – | – | – | – | – | – | – | 2.6
